Like-named read-outs stand apart in the source and are kept apart here.
Columns and labels:
[1] = Nonspecific cytotoxic effects (CC50), CytoTox 96 kit
[2] = target: T1, 3CLpro of SARS-CoV-2 (Severe acute respiratory syndrome coronavirus 2, UniProt P0DTD1); assay: biochemical; type: biochemical
T1 construct: The codon-optimized cDNA of full length of 3CLpro of SARS-CoV-2; 6xHis (N); made in house; pET-28a(+) vector (points to E. coli, my inference)

SMILES	CC50 at 72 h [1] [nM]	IC50 ([2]; read-out: IC50) [nM]	IC50 [2] [nM]	fold higher IC50 than those of 12b and 14c [2] [fold]
CC(C)C[C@H](NC(=O)OCC1CCC(F)(F)CC1)C(=O)N[C@@H](C[C@@H]1CCNC1=O)C(O)S(=O)(=O)O (stereo partly drawn) [Compound 10c, Sodium (2S)-2-((S)-2-((((4,4-difluorocyclohexyl)methoxy)carbonyl)amino)-4-methylpentanamido)-1-hydroxy-3-((S)-2-oxopyrrolidin-3-yl)propane-1-sulfonate]	> 100000	450		
CC(C)C[C@H](NC(=O)OCc1ccccc1F)C(=O)N[C@H](C=O)C[C@@H]1CCNC1=O [Compound 17b, 2-Fluorobenzyl ((S)-4-methyl-1-oxo-1-(((S)-1-oxo-3-((S)-2-oxopyrrolidin-3-yl)propan-2-yl)amino)pentan-2-yl)carbamate]	> 100000		380	
CC(C)C[C@H](NC(=O)OCC1CCC(F)(F)CC1)C(=O)N[C@H](C=O)C[C@@H]1CCNC1=O [Compound 10b, (4,4-Difluorocyclohexyl)methyl ((S)-4-methyl-1-oxo-1-(((S)-1-oxo-3-((S)-2-oxopyrrolidin-3-yl)propan-2-yl)amino)pentan-2-yl)carbamate]	> 100000			
CC(C)CC(NC(=O)OC1CCC(C(C)C)CC1)C(=O)NC(CC1CCNC1=O)C(O)S(=O)(=O)O [Compound 2c, Sodium (2S)-1-hydroxy-2-((S)-2-(((((1r,4S)-4-isopropylcyclohexyl)oxy)carbonyl)amino)-4-methylpentanamido)-3-((S)-2-oxopyrrolidin-3-yl)propane-1-sulfonate]	> 100000		230	
CC(C)C[C@H](NC(=O)OCc1ccc(F)cc1)C(=O)N[C@@H](C[C@@H]1CCNC1=O)C(O)S(=O)(=O)O (stereo partly drawn) [Compound 19c, Sodium (2S)-2-((S)-2-((((4-fluorobenzyl)oxy)carbonyl)amino)-4-methylpentanamido)-1-hydroxy-3-((S)-2-oxopyrrolidin-3-yl)propane-1-sulfonate]	> 100000		380	
CCCCC1CCC(OC(=O)NC(CC(C)C)C(=O)NC(C=O)CC2CCNC2=O)CC1 [Compound 4b, (1s,4S)-4-Butylcyclohexyl ((S)-4-methyl-1-oxo-1-(((S)-1-oxo-3-((S)-2-oxopyrrolidin-3-yl)propan-2-yl)amino)pentan-2-yl)carbamate]	> 100000		160	
CC(C)C[C@H](NC(=O)OCc1ccccc1F)C(=O)N[C@@H](C[C@@H]1CCNC1=O)C(O)S(=O)(=O)O (stereo partly drawn) [Compound 17c, Sodium (2S)-2-((S)-2-((((2-fluorobenzyl)oxy)carbonyl)amino)-4-methylpentanamido)-1-hydroxy-3-((S)-2-oxopyrrolidin-3-yl)propane-1-sulfonate]	> 100000		400	
CC(C)C[C@H](NC(=O)O[C@H]1CC[C@H](C(C)C)CC1)C(=O)N[C@H](C=O)C[C@@H]1CCNC1=O [Compound 2b, (1r,4S)-4-isopropylcyclohexyl ((S)-4-methyl-1-oxo-1-(((S)-1-oxo-3-((S)-2-oxopyrrolidin-3-yl)propan-2-yl)amino)pentan-2-yl)carbamate]	> 100000		250	
CC(C)C[C@H](NC(=O)OC(C)C1CCC(F)(F)CC1)C(=O)N[C@H](C=O)C[C@@H]1CCNC1=O (stereo partly drawn) [Compound 12b, 1-(4,4-Difluorocyclohexyl)ethyl ((S)-4-methyl-1-oxo-1-(((S)-1-oxo-3-((S)-2-oxopyrrolidin-3-yl)propan-2-yl)amino)pentan-2-yl)carbamate]	> 100000		210	
CC(C)C[C@H](NC(=O)OC(C)(C)C1CCC(F)(F)CC1)C(=O)N[C@H](C=O)C[C@@H]1CCNC1=O [Compound 13b, 2-(4,4-Difluorocyclohexyl)propan-2-yl ((S)-4-methyl-1-oxo-1-(((S)-1-oxo-3-((S)-2-oxopyrrolidin-3-yl)propan-2-yl)amino)pentan-2-yl)carbamate]	> 100000		800	
[2H]C([2H])(OC(=O)N[C@@H](CC(C)C)C(=O)N[C@H](C=O)CC1CCNC1=O)C1CCC(F)(F)CC1 (stereo partly drawn) [Compound 11b, (4,4-Difluorocyclohexyl) methyl-d2 ((2S)-4-methyl-1-oxo-1-(((2S)-1-oxo-3-(2-oxopyrrolidin-3-yl)propan-2-yl)amino)pentan-2-yl) carbamate]	> 100000			
CC(C)C[C@H](NC(=O)OCc1c(F)c(F)c(F)c(F)c1F)C(=O)N[C@H](C=O)CC1CCNC1=O (stereo partly drawn) [Compound 21b, (Perfluorophenyl)methyl ((2S)-4-methyl-1-oxo-1-(((2S)-1-oxo-3-(2-oxopyrrolidin-3-yl)propan-2-yl)amino)pentan-2-yl) carbamate]	> 100000			
CCCC1CCC(OC(=O)NC(CC(C)C)C(=O)NC(C=O)CC2CCNC2=O)CC1 [Compound 3b, (1s,4S)-4-propylcyclohexyl ((S)-4-methyl-1-oxo-1-(((S)-1-oxo-3-((S)-2-oxopyrrolidin-3-yl)propan-2-yl)amino)pentan-2-yl)carbamate]	> 100000		260	
CC(C)CC(NC(=O)OCC1C(c2ccccc2)C1(F)F)C(=O)NC(CC1CCNC1=O)C(O)S(=O)(=O)O (centres unmarked) [GC1270]			160	
[2H]C([2H])(OC(=O)N[C@@H](CC(C)C)C(=O)N[C@H](C=O)C[C@@H]1CCNC1=O)c1ccc(F)cc1 [Compound 20b, (4-Fluorophenyl)methyl-d2 ((S)-4-methyl-1-oxo-1-(((S)-1-oxo-3-((S)-2-oxopyrrolidin-3-yl)propan-2-yl)amino)pentan-2-yl)carbamate]	> 100000			
CC(C)C[C@H](NC(=O)OC(Cc1ccccc1)c1ccccc1)C(=O)N[C@H](C=O)C[C@@H]1CCNC1=O (stereo partly drawn) [Compound 24b, 1,2-Diphenylethyl ((S)-4-methyl-1-oxo-1-(((S)-1-oxo-3-((S)-2-oxopyrrolidin-3-yl)propan-2-yl)amino)pentan-2-yl)carbamate]	> 100000		4100	
CC(C)CC(NC(=O)OCC1C(c2ccccc2)C1(F)F)C(=O)NC(C=O)CC1CCNC1=O (centres unmarked) [GC1269]			140	
[2H]C([2H])(OC(=O)N[C@@H](CC(C)C)C(=O)N[C@H](C=O)CC1CCNC1=O)c1c(F)c(F)c(F)c(F)c1F (stereo partly drawn) [Compound 22b, (Perfluorophenyl)methyl-d2 ((2S)-4-methyl-1-oxo-1-(((2S)-1-oxo-3-(2-oxopyrrolidin-3-yl)propan-2-yl)amino)pentan-2-yl) carbamate]	> 100000		630	
[2H]C([2H])(OC(=O)N[C@@H](CC(C)C)C(=O)N[C@@H](CC1CCNC1=O)C(O)S(=O)(=O)O)c1c(F)c(F)c(F)c(F)c1F (stereo partly drawn) [Compound 22c, Sodium (2S)-1-hydroxy-2-((S)-4-methyl-2-((((perfluorophenyl)methoxy-d2)carbonyl)amino)pentanamido)-3-(2-oxopyrrolidin-3-yl) propane-1-sulfonate]	> 100000		450	
CC(C)C[C@H](NC(=O)OCc1ccc(F)cc1)C(=O)N[C@H](C=O)C[C@@H]1CCNC1=O [Compound 19b, 4-Fluorobenzyl ((S)-4-methyl-1-oxo-1-(((S)-1-oxo-3-((S)-2-oxopyrrolidin-3-yl)propan-2-yl)amino)pentan-2-yl)carbamate]	> 100000			
CC(C)C[C@H](NC(=O)OCC(C)(C)Oc1ccc(Cl)cc1)C(=O)N[C@H](C=O)CC1CCNC1=O (some centres unmarked) [MM-II-42]			260	
CC(C)C[C@H](NC(=O)OCC(C)(C)Oc1ccc(Cl)cc1)C(=O)N[C@@H](CC1CCNC1=O)C(O)S(=O)(=O)O (some centres unmarked) [MM-II-43]			240	
CCCC1CCC(COC(=O)NC(CC(C)C)C(=O)NC(C=O)CC2CCNC2=O)CC1 [Compound 8b, ((1r,4R)-4-Propylcyclohexyl) methyl ((2S)-4-methyl-1-oxo-1-(((2S)-1-oxo-3-(2-oxopyrrolidin-3-yl)propan-2-yl)amino)pentan-2-yl) carbamate]	> 100000		220	
CCCCC(OC(=O)N[C@@H](CC(C)C)C(=O)N[C@H](C=O)C[C@@H]1CCNC1=O)C1CCC(F)(F)CC1 (stereo partly drawn) [Compound 16b, 1-(4,4-Difluorocyclohexyl)pentyl ((S)-4-methyl-1-oxo-1-(((S)-1-oxo-3-((S)-2-oxopyrrolidin-3-yl)propan-2-yl)amino)pentan-2-yl)carbamate]	> 100000		160	
CC(C)C[C@H](NC(=O)OCc1cccc(F)c1)C(=O)N[C@H](C=O)C[C@@H]1CCNC1=O [Compound 18b, 3-Fluorobenzyl ((S)-4-methyl-1-oxo-1-(((S)-1-oxo-3-((S)-2-oxopyrrolidin-3-yl)propan-2-yl)amino)pentan-2-yl)carbamate]	> 100000		320	
CC(C)C[C@H](NC(=O)OC(C)(C)C1CCC(F)(F)CC1)C(=O)N[C@@H](C[C@@H]1CCNC1=O)C(O)S(=O)(=O)[O-].[Na+] (stereo partly drawn) [Compound 13c, Sodium (2S)-2-((S)-2-((((2-(4,4-difluorocyclohexyl)propan-2-yl)oxy)carbonyl)amino)-4-methylpentanamido)-1-hydroxy-3-((S)-2-oxopyrrolidin-3-yl)propane-1-sulfonate]	> 100000		900	~4
CC(C)C[C@H](NC(=O)OC1CCC(C)(C)CC1)C(=O)N[C@H](C=O)C[C@@H]1CCNC1=O [Compound 1b, 4,4-Dimethylcyclohexyl ((S)-4-methyl-1-oxo-1-(((S)-1-oxo-3-((S)-2-oxopyrrolidin-3-yl)propan-2-yl)amino)pentan-2-yl)carbamate]	> 100000		280	
[2H]C([2H])(OC(=O)N[C@@H](CC(C)C)C(=O)N[C@@H](C[C@@H]1CCNC1=O)C(O)S(=O)(=O)[O-])c1ccc(F)cc1.[Na+] (stereo partly drawn) [Compound 20c, Sodium (2S)-2-((S)-2-((((4-fluorophenyl)methoxy-d2)carbonyl)amino)-4-methylpentan amido)-1-hydroxy-3-((S)-2-oxopyrrolidin-3-yl)propane-1-sulfonate]	> 100000			

Source: patent US12583820B2, “Broad spectrum antivirals against coronavirus” (priority 2020, dated 2026)
